Data on 11 compounds can be found in patent US20220047525A1, “TRANSDERMAL PHARMACEUTICAL FORMULATIONS OF NABILONE ALONE AND IN COMBINATION WITH CANNABINOIDS” (Pike Therapeutics, Inc., priority 2020, published 2022).

For data set [1] the following is noted: in vivo; cited from earlier work.
In a further data set the target is CB2 (Homo sapiens, UniProt P34972). The conditions noted are these: cited from earlier work.
The nature of data set [2]: Tolerability of CBD and THCV daily doses. In kind it is in vivo.
The target in another data set is CB1 (Homo sapiens, UniProt P21554). The conditions noted are these: cited from earlier work.
Chain of CB1 (P21554 whole entry, species assumed): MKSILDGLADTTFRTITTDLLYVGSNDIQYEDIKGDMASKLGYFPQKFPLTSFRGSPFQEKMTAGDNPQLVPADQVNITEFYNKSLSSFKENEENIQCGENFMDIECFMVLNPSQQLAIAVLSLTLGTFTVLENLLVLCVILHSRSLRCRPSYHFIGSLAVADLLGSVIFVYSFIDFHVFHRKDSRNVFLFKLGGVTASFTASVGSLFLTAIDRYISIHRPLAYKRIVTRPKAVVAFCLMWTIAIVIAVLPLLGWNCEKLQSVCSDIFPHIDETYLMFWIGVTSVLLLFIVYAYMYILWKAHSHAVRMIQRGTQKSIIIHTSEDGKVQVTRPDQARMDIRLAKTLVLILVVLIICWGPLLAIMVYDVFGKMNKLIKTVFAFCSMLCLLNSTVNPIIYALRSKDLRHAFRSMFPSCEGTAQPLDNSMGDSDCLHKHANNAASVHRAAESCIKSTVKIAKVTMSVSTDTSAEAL

Chain of CB2 (P34972 whole entry, species assumed): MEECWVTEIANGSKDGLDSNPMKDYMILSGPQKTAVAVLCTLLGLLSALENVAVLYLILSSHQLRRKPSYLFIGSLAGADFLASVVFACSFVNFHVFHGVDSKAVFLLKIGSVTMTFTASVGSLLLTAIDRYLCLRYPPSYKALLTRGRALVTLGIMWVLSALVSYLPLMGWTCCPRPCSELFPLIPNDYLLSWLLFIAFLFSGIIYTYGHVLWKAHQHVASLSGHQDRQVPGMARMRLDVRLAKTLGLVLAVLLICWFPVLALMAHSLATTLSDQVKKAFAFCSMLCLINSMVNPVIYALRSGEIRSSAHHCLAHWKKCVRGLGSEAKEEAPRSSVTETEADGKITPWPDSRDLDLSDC

With `CCCCCCC(C)(C)c1cc(O)c2c(c1)OC(C)(C)[C@@H]1CCC(=O)C[C@@H]21` (racemic) [Cesamet, (±)-trans-3-(1,1-dimethylheptyl)-6,6a,7,8,10,10a-hexahydro-lhydroxy-6-6-dimethyl-9H-dibenzo[b,d]pyran-9-one], the reducing spasticity entry in data set [1] is reported as “positive results”.

With `CCCCCCC(C)(C)c1cc(O)c2c(c1)oc(=O)c1ccc(OC)cc12` [AM-1710], the “selectivity for CB2 over CB1” value on CB2 is given as 54 ×.

`C=C(C)[C@@H]1CCC(C)=C[C@H]1c1c(O)cc(CCCCC)cc1O` [CBD, 2-[(1R,6R)-6-isopropenyl-3-methylcyclohex-2-en-1-yl]-5-pentylbenzene-1,3-diol]: the tolerability entry in data set [2] (200 mg CBD per day) is listed as “well tolerated”.

As to `CCCn1cc(C(=O)c2ccc(C)c3ccccc23)c2ccccc21` [JWH-120], the “selectivity for CB2” value at CB2 is 173 fold.

In the case of `CCCn1c(C)c(C(=O)c2ccc(C)c3ccccc23)c2ccccc21` [JWH-148], the “selectivity for CB2 over the CB1 subtype” value on CB2 was “more than 8 times”.

Consider `CCCCCCC(C)(C)c1cc(OC)c2c(c1)OC(C)(C)C1CCC(O)CC21` (stereo not drawn) [JWH-350, 11-nor-1-methoxy-3-(1′,1′-dimethylheptyl)-9α-hydroxyhexahydrocannabinol], for which the “selectivity for CB2” value on CB2 is 33 fold.

As usually defined, the Ki is a dissociation constant, usually derived from enzyme kinetics or from competition with a known ligand. For the compound `CCCCCn1cc(C(=O)c2ccc(Cl)c3ccccc23)c2ccccc21` [JWH-398], the Ki at CB1 was 2.3 nM; on CB2 it was 2.8 nM.

In the case of `CCCCCn1cc(C(=O)c2cccc3cccc(Br)c23)c2ccccc21` [JWH-424], the Ki was 20.9 nM on CB1 and 5.44 nM at CB2.

For `CCCCCc1cc(O)c2c(c1)OC(C)(C)[C@@H]1CCC(C)=C[C@@H]21` [Marinol], in data set [1], the reducing spasticity entry was “positive results”.

With `CCCCC/C=C\C/C=C\C/C=C\C/C=C\CCCC(=O)N[C@H](C)CO` [Methanandamide], the Ki on CB1 was 17.9 nM.

Consider `CCCc1cc(O)c2c(c1)OC(C)(C)[C@@H]1CCC(C)=C[C@@H]21` [THCV, tetrahydrocannbivarin], for which the tolerability entry in data set [2] (10 mg THCV per day) was “well tolerated”.
